One assay has as its system mouse bone marrow cells. Description: Hematopoietic progenitor clonogenic (CFU) assay of bone marrow after 7 Gy TBI. The format is in vivo. How it is done:
Hematopoietic Progenitor Clonogenic Assay: Clonogenicity of mouse bone marrow cells was quantified in standard semisolid cultures using 1 mL of Methocult GF+ system for mouse cells (Stem Cell Technologies Inc., Vancouver, BC) according to the manufacturer's instructions. Briefly, colony forming units (CFU) were assayed on days 0 (2 h post-TBI), 1, 3, 7, 15, and 30 after 7 Gy exposure or unirradiated mice. Cells from three femurs from different animals were pooled, washed twice with IMDM and seeded at 1 to 5×10^4 cells per 35 mm cell culture dishes (BD Biosciences, San Jose, Calif.). Each sample was plated in duplicate to be scored 14 days after plating. Granulocyte-macrophage colony forming units (CFU-GM), granulocyte-erythrocyte-monocyte-[…] CFU (CFU-GEMM), colony-forming unit-erythroid (CFU-E) and erythroid burst-forming units (BFU-E) were identified and quantified following the manufacturer's instructions. Colonies were counted 14 days after plating using a Nikon TS100F microscope. Fifty or more cells were considered one colony. Data were expressed as mean f standard error of mean (SEM). Statistical significance was determined between irradiated vehicle treated and RWJ-800088-treated groups.

The test system of assay [1] is male BALB/c mice treated with carboplatin. Description: Carboplatin induced thrombocytopenia, anemia, mortality and brain microangiopathic events in mice. The format is in vivo, mouse. How it is done:
Materials and Methods: Increasing doses of carboplatin (i.e., 60, 70, or 80 mg/kg, i.p.) were administered on 2 consecutive days (Day 1 and Day 0) to male BALB/c mice (N=3 per group). Approximately 1 hour after carboplatin treatment on Day 0, sets of mice were treated with vehicle or RWJ-800088 (100 μg/kg, i.v.).
On Day 15, surviving mice were euthanized and blood samples were collected for the assessment of platelet and red blood cell (RBC) parameters. The brains of the mice were also isolated and preserved in 10% buffered formalin for immunohistochemical staining using anti-fibrinogen antibodies. Control mice were processed in a similar manner.

In assay [2] the test system is CD2F1 mice exposed to TBI (7 Gy). Description: Hematological recovery (peripheral blood counts) after non-lethal 7 Gy TBI. The format is in vivo, mouse. How it is done:
Hematological recovery with RWJ-800088: To study the effects of prophylactic administration of RWJ-800088 on the recovery from hematopoietic injury following TBI, CD2F1 mice (n=10 per group) were treated with either a single dose of RWJ-800088 (0.3 mg/kg) or its vehicle (saline) 24 hours pre-TBI at a non-lethal dose of 7.0 Gy. This dose allows the animals to recover completely from the radiation-induced hematopoietic injury. In addition, a group of sham irradiated mice were given either the drug or saline. Blood collection was performed using a 23 G needle from the submandibular vein after anesthetizing the mice with isoflurane (Hospira Inc., Lake Forest, Ill.) at 2 hours and on days 1, 3, 7, 10, 14, 21, and 30 post-TBI. All mice were allowed to recover fully from anesthesia and monitored closely for any signs of a post-anesthesia reaction or bleeding at the collection site before returned to group housed cages. Approximately 20 μL of blood was collected in EDTA tubes and was continually rotated until CBC/differential analysis was completed using a HESKA Element HT™ 5 Analyzer system (HESKA Corporation, Loveland, Colo.). This CBC/differential analysis included white blood cells (WBC) counts, absolute neutrophil counts (Liem-Moolenaar, Clin Pharmacol Ther. 2008 October; 84(4):481-7), monocytes (MON), lymphocytes (LYM), red blood cells (RBC), hematocrits (HCT), and platelets (PLT) counts.

Setting [3] is: carboplatin 70 mg/kg, RWJ-800088 100 μg/kg i.v., Day 15.
Setting [4] is: day 7 post-TBI 7 Gy, 0.3 mg/kg 24 h pre-TBI.
Where [5] appears, read: day 10 post-TBI 7 Gy, 0.3 mg/kg 24 h pre-TBI.
Setting [6] is: day 14 post-TBI 7 Gy, 0.3 mg/kg 24 h pre-TBI.

Square brackets hold non-standard residues; d marks the D form. * marks the point of attachment. 2Nal = N[C@@H](Cc1ccc2ccccc2c1)C(=O)O; Propionyl = CCC(=O)*; Sar = CNCC(=O)O

As for “methoxypolyethyleneglycol20000-propionyl-L-Isoleucyl-L-Glutamyl-Glycyl-L-Prolyl-L-Threonyl-L-Leucyl-L-Arginyl-L-Glutaminyl-L-2-Naphthylalanyl-L-Leucyl-L-Alanyl-L-Alanyl-L-Arginyl-Sarcosyl-Ne-(methoxypolyethyleneglycol20000-propionyl-L-Isoleucyl-L-Glutamyl-Glycyl-L-Prolyl-L-Threonyl-L-Leucyl-L-Arginyl-L-Glutaminyl-L-2-Naphthylalanyl-L-Leucyl-L-Alanyl-L-Alanyl-L-Arginyl-Sarcosyl-)-Lysinamide ({mPEG 20 kDa-Propionyl}-IEGPTLRQ[2Nal]LAAR[Sar]K-NH2; also: dimer: second identical mPEG-propionyl chain on Lys Nε of C-terminal lysinamide) [RWJ-800088]”, the “total number of colonies in the vehicle-treated group compared to the RWJ-800088 treated group” value in the assay with mouse bone marrow cells (day 15 post-TBI 7 Gy, 24 h pre-TBI administration) is reported as “significantly lower”. Besides, in the assay with mouse bone marrow cells (day 30 post-TBI 7 Gy), the “GM, GEMM, BFU-E and CFU-E, vehicle-treated vs RWJ-800088 treated groups” value is recorded as “significantly lower (p<0.0001)”. Further, in assay [1] (Mice, carboplatin chemotherapy, whole wrapped cell: Protection against thrombocytopenia, anemia and vascular hemorrhage in the brain), the Effects entry is listed as “Protection against”. For the same substance, the “fibrinogen staining of brain sections (immunohistochemistry)” value in assay [1] (setting [3]) is “appeared normal with the intensity of fibrinogen staining similar to vessels in the brains of control mice”. In assay [1] (setting [3]), the “signs of hemorrhage or edema in brain” value is “none of the brains isolated from mice co-treated with RWJ-800088 exhibited signs of hemorrhage or edema”. The “platelet and RBC counts on Day 15” value in assay [1] (carboplatin 60, 70 or 80 mg/kg i.p. on 2 consecutive days, RWJ-800088 100 μg/kg i.v. ~1 hour after carboplatin on Day 0) was “prevented the observed decreases in platelet and RBC counts”. For the same substance, the mortality / euthanization result in assay [1] (carboplatin 60-80 mg/kg i.p. x2 days, RWJ-800088 100 μg/kg i.v.) is recorded as “none of the mice treated with RWJ-800088 died or required euthanization”. In assay [2] (7 Gy, 0.3 mg/kg 24 h pre-TBI), the “recovery from cytopenia of all blood cell counts vs vehicle control” value is “significant”. Also, the “Neutrophil (NEU) counts” value in assay [2] (setting [4]) is recorded as 0.31±0.026 cells/μL; in assay [2] (setting [6]), 1.54±0.21 cells/μL. The entries for the “white blood cell (WBC) counts” value in assay [2] (setting [4]), in assay [2] (setting [5]) and in assay [2] (setting [6]) were 0.5±0.037 cells/μL, 1.39±0.1756 cells/μL and 2.43±0.32 cells/μL, respectively. In addition, in assay [2] (day 10 post-TBI 7 Gy), the “lymphocyte (LYM) vs vehicle-treated group” value was “significant (p<0.05) increases”. The “platelet (PLT) count” value was 1565×10^3±148×10^3 cells/μL in assay [2] (setting [5]) and 1070×10^3±156×10^3 cells/μL in assay [2] (day 14 post-TBI 7 Gy, 0.3 mg/kg 24 h pre-TBI, irradiated RWJ-800088 treated group). Besides, in assay [2] (day 14 post-TBI 7 Gy), the “RBC counts of irradiated vehicle-treated group compared with irradiated RWJ-800088 treated group” value is listed as “same effect was also observed”. The “% HCT of irradiated vehicle-treated group compared with irradiated RWJ-800088 treated group” value in assay [2] (day 14 post-TBI 7 Gy, p<0.001) is “significantly lower”. Moreover, the “monocyte (MON) counts vs irradiated vehicle-treated group” value in assay [2] (days 7, 10 and 14 post-TBI 7 Gy, p<0.001) was “markedly higher”. Besides, the “PLT in non-irradiated groups vs saline” value in assay [2] (non-irradiated, days 7 and 10 post-TBI (days 8 and 11 after administration), 0.3 mg/kg) is “significant (p<0.05) increase in PLT”.

Values taken from patent US20220168392A1 (priority 2019, published 2022).
